Test system: 565726-208-R1-J5-PDC complex spheroids, growth inhibition
Assay: Anticancer human tumor 565726-208-R1-J5-PDC patient-derived pancreatic adenocarcinoma cell line growth inhibition [RAS]
Conditions: for IC50: curve of first compound; for viability, T/C: stronger effect = lower value
In short: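 Multi-cell-type spheroids: tumor cells plus HUVEC endothelial cells and mesenchymal stem cells. RAS-pathway inhibitors were combined with targeted agents, each dosed in half-log steps down from clinical Cmax, or from 10 microM when Cmax was unknown.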
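Also: spheroids exposed to compounds for seven days before readout.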
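For viability, T/C in this document: 100% = DMSO vehicle control viability.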

CC(Nc1ccc2c(c1)OCCn1cc(N3C(=O)OCC3C(F)F)nc1-2)C(N)=O (centres undefined) + CCn1c(-c2cccnc2C(C)OC)c2c3cc(ccc31)N1CCOC(CC(NC(=O)C(C(C)C)N(C)C(=O)C3(F)CCN(C(=O)C#CC(C)(C)N(C)C)CC3)C(=O)N3CCCC(N3)C(=O)OCC(C)(C)C2)C1
IC50 (second compound 0.000949 µM): > 10000 nM | IC50 (second compound 0.003 µM): > 10000 nM | IC50 (second compound 0.00949 µM): 8980 nM | IC50 (second compound 0.03 µM): 8760 nM | IC50 (second compound 0.0949 µM): 7050 nM | IC50 (second compound 0.3 µM): 2390 nM | viability, T/C (second compound 0.000949 µM, first compound 0.0316 µM): 87.5% | viability, T/C (second compound 0.000949 µM, first compound 0.1 µM): 80.8% | viability, T/C (second compound 0.000949 µM, first compound 0.316 µM): 77.3% | viability, T/C (second compound 0.000949 µM, first compound 1 µM): 72.8% | viability, T/C (second compound 0.000949 µM, first compound 3.16 µM): 64.8% | viability, T/C (second compound 0.000949 µM, first compound 10 µM): 50.7% | viability, T/C (second compound 0.003 µM, first compound 0.0316 µM): 93.7% | viability, T/C (second compound 0.003 µM, first compound 0.1 µM): 88.4% | viability, T/C (second compound 0.003 µM, first compound 0.316 µM): 75% | viability, T/C (second compound 0.003 µM, first compound 1 µM): 75.9% | viability, T/C (second compound 0.003 µM, first compound 3.16 µM): 62.9% | viability, T/C (second compound 0.003 µM, first compound 10 µM): 52.9% | viability, T/C (second compound 0.00949 µM, first compound 0.0316 µM): 92.3% | viability, T/C (second compound 0.00949 µM, first compound 0.1 µM): 91.2% | viability, T/C (second compound 0.00949 µM, first compound 0.316 µM): 77.8% | viability, T/C (second compound 0.00949 µM, first compound 1 µM): 77.6% | viability, T/C (second compound 0.00949 µM, first compound 3.16 µM): 63.7% | viability, T/C (second compound 0.00949 µM, first compound 10 µM): 47.7% | viability, T/C (second compound 0.03 µM, first compound 0.0316 µM): 93% | viability, T/C (second compound 0.03 µM, first compound 0.1 µM): 85.6% | viability, T/C (second compound 0.03 µM, first compound 0.316 µM): 80.4% | viability, T/C (second compound 0.03 µM, first compound 1 µM): 71.1% | viability, T/C (second compound 0.03 µM, first compound 3.16 µM): 55.2% | viability, T/C (second compound 0.03 µM, first compound 10 µM): 49.9% | viability, T/C (second compound 0.0949 µM, first compound 0.0316 µM): 88.8% | viability, T/C (second compound 0.0949 µM, first compound 0.1 µM): 82.4% | viability, T/C (second compound 0.0949 µM, first compound 0.316 µM): 84.4% | viability, T/C (second compound 0.0949 µM, first compound 1 µM): 65.9% | viability, T/C (second compound 0.0949 µM, first compound 3.16 µM): 63% | viability, T/C (second compound 0.0949 µM, first compound 10 µM): 44.8% | viability, T/C (second compound 0.3 µM, first compound 0.0316 µM): 80% | viability, T/C (second compound 0.3 µM, first compound 0.1 µM): 72.8% | viability, T/C (second compound 0.3 µM, first compound 0.316 µM): 72% | viability, T/C (second compound 0.3 µM, first compound 1 µM): 63.7% | viability, T/C (second compound 0.3 µM, first compound 3.16 µM): 44.9% | viability, T/C (second compound 0.3 µM, first compound 10 µM): 38.2%

CC1(C)CCC(Nc2ncc(C(F)(F)F)c(-c3c[nH]c4c(P(C)(C)=O)c(C#N)ccc34)n2)CN1 (centres undefined) + CCn1c(-c2cc(N3CCN(C)CC3)cnc2C(C)OC)c2c3cc(ccc31)-c1csc(n1)CC(NC(=O)C1CC1C)C(=O)N1CCCC(N1)C(=O)OCC(C)(C)C2
IC50 (second compound 0.000949 µM): 1.34 nM | IC50 (second compound 0.003 µM): < 0.949 nM | IC50 (second compound 0.00949 µM): < 0.949 nM | IC50 (second compound 0.03 µM): < 0.949 nM | IC50 (second compound 0.0949 µM): < 0.949 nM | IC50 (second compound 0.3 µM): < 0.949 nM | viability, T/C (second compound 0.000949 µM, first compound 0.000949 µM): 54.4% | viability, T/C (second compound 0.000949 µM, first compound 0.003 µM): 41.2% | viability, T/C (second compound 0.000949 µM, first compound 0.00949 µM): 30.8% | viability, T/C (second compound 0.000949 µM, first compound 0.03 µM): 31.5% | viability, T/C (second compound 0.000949 µM, first compound 0.0949 µM): 31.6% | viability, T/C (second compound 0.000949 µM, first compound 0.3 µM): 34.4% | viability, T/C (second compound 0.003 µM, first compound 0.000949 µM): 46.8% | viability, T/C (second compound 0.003 µM, first compound 0.003 µM): 40.3% | viability, T/C (second compound 0.003 µM, first compound 0.00949 µM): 38.4% | viability, T/C (second compound 0.003 µM, first compound 0.03 µM): 28.9% | viability, T/C (second compound 0.003 µM, first compound 0.0949 µM): 32.6% | viability, T/C (second compound 0.003 µM, first compound 0.3 µM): 29.9% | viability, T/C (second compound 0.00949 µM, first compound 0.000949 µM): 37.3% | viability, T/C (second compound 0.00949 µM, first compound 0.003 µM): 36.1% | viability, T/C (second compound 0.00949 µM, first compound 0.00949 µM): 30.4% | viability, T/C (second compound 0.00949 µM, first compound 0.03 µM): 30.7% | viability, T/C (second compound 0.00949 µM, first compound 0.0949 µM): 28.1% | viability, T/C (second compound 0.00949 µM, first compound 0.3 µM): 28.7% | viability, T/C (second compound 0.03 µM, first compound 0.000949 µM): 30% | viability, T/C (second compound 0.03 µM, first compound 0.003 µM): 30.9% | viability, T/C (second compound 0.03 µM, first compound 0.00949 µM): 26.4% | viability, T/C (second compound 0.03 µM, first compound 0.03 µM): 25.5% | viability, T/C (second compound 0.03 µM, first compound 0.0949 µM): 28.5% | viability, T/C (second compound 0.03 µM, first compound 0.3 µM): 26% | viability, T/C (second compound 0.0949 µM, first compound 0.000949 µM): 24.8% | viability, T/C (second compound 0.0949 µM, first compound 0.003 µM): 27.1% | viability, T/C (second compound 0.0949 µM, first compound 0.00949 µM): 26.1% | viability, T/C (second compound 0.0949 µM, first compound 0.03 µM): 24% | viability, T/C (second compound 0.0949 µM, first compound 0.0949 µM): 26.8% | viability, T/C (second compound 0.0949 µM, first compound 0.3 µM): 23.8% | viability, T/C (second compound 0.3 µM, first compound 0.000949 µM): 22.5% | viability, T/C (second compound 0.3 µM, first compound 0.003 µM): 23.4% | viability, T/C (second compound 0.3 µM, first compound 0.00949 µM): 22.8% | viability, T/C (second compound 0.3 µM, first compound 0.03 µM): 22.4% | viability, T/C (second compound 0.3 µM, first compound 0.0949 µM): 25.4% | viability, T/C (second compound 0.3 µM, first compound 0.3 µM): 21.9%

From PubChem BioAssay AID2060899 (Molecular Pharmacology Branch, DTP, NCI, 2025)
